Series [1] in a line: Single-dose plasma pharmacokinetics of raltitrexed in cancer patients (radioimmunoassay, three-compartment model). It counts as in vivo, human. On the procedure: British Journal of Cancer (1 998) 78(9). 1188-1193 C 1998 Cancer Research Campaign Effects of impaired renal function on the pharmacokinetics of raltitrexed (Tomudex ZDI 694) I Judson', T Maughan2, P Beale', J Primrose3, P Hoskin4, J HanweIll, C Berry1, M Walker5 and F Sutcliffe5 lInstitute of Cancer Research. Sutton, Surrey SM2 5NG, UK; Welindre Hospital, Whitchurch. Cardiff CF4, UK; 3Souftampton General Hospital, Southampton S09 4XY. UK: 'Mount Vernon Hospital, Middlesex HA6 2RN. UK; 5Zeneca Pharmaceutcals Macclesfield. Cheshire SK10 4TG. UK Summary This open-label, non-randomized, parallel-group trial investigated the pharmacokinetics of raltitrexed (Tomudex, formerly ZD1 694) after a single intravenous dose of 3.0 mg m-2, comparing eight cancer patients with mild to moderate renal impairment (creatinine clearance 25-65 ml min-') with eight cancer patients with normal renal function (creatinine clearance >65 ml min-'). The primary end points were area under the plasma raltitrexed concentration-vime curve from the start of the infusion to the last determined concentration (AUCo_) and AUC to infinity (AUCo); secondary end points were peak corncentrations of ralftitrexed (C,n,) and elimination half-life (t,>). The groups were compared statistically using analysis of covariance. The AUCs were greater for patients with renal impairment than for patients with normal renal function (2452.2 compared with 1247.3 ng h ml-' for AUCo._. (ratio 1.97; 95% Cl 1.36-2.84); 2961.5 compared with 1457.0 ng h ml-' for AUCo_ (ratio 2.03; 1.25-3.29). These differences were statistically significant (P = 0.002 and P = 0.008 for AUC, and AUCo_ respectively. Terminal half-life was longer for the renally impaired patients (271.2 compared with 143.3; P = 0.030). There was no significant statistical difference between the groups for C, (652.9 compared with 564.7 ng ml-' for patients with impaired and normal renal function respectively: ratio 1.16; 0.91-1.46; P=0.204). There was a clear relationship between raltfitrexed clearance and creatinine clearance. Adverse events, severe (WHO grade 3 or 4) toxicity and hospitalization due to adverse events were more frequent in the group with renal impairment. Therefore, a reduction in ralftitrexed dose and increased interval between doses is recommended for patients with mild to moderate renal impairment. Keywords: pharmacokinetics; thymidylate synthase; phase I trial; raltitrexed; renal impairment Raltitrexed (Tomudex. ZD1694: Zeneca Limited) is a cytotoxic agent w-hich acts by direct and specific inhibition of thymidydlate synthase. the enzyme catalysing a critical step in de novo DNA synthesis. i.e. the production of thymidine monophosphate from deoxvuridine monophosphate. Some clinically effective anti- cancer agents. such as 5-fluorouracil and methotrexate. act in part by inhibiting thymidylate synthase but also have effects on other enzyme pathways. xvhich may contribute to their anti-tumour activity and obserned toxicity profiles. Raltitrexed inhibits thymidylate synthase selectively in vitro (Jackman et al. 1991). […] The poly- glutamates are retained in cells and cause prolonged inhibition of th midv late synthase. which leads to DNA fragmentation and cell death. […] The mean apparent half-life of the terminal (gamma) phase (tl, ,) was 50-lOO h (Clarke et al. 1996). This prolonged t1, may represent hydrolysis of the polvalutamated Received 17 November 1997 Revised 4 Apnl 1998 Accepted 14 Apnl 1998 Correspondence to: IR Judson, CRC Centre for Cancer Therapeutics. The Institute of Cancer Research. Block E. 15 Cotswold Road. Belmont. Sutton. Surrey SM2 5NG. UK forms and release of raltitrexed from tissues into the circulation. and allow s the druc to be administered as a single dose once ev er 3 weeks. In the phase I trial. a dose and schedule of 3.0mg m-' every 3 weeks was identified as suitable for phase H inxvestigation. […]

Series [2] is described as follows: Safety: adverse events and WHO-graded toxicity in cancer patients. In kind it is in vivo. How it is done:
British Journal of Cancer (1 998) 78(9). 1188-1193 C 1998 Cancer Research Campaign Effects of impaired renal function on the pharmacokinetics of raltitrexed (Tomudex ZDI 694) I Judson', T Maughan2, P Beale', J Primrose3, P Hoskin4, J HanweIll, C Berry1, M Walker5 and F Sutcliffe5 lInstitute of Cancer Research. Sutton, Surrey SM2 5NG, UK; Welindre Hospital, Whitchurch. Cardiff CF4, UK; 3Souftampton General Hospital, Southampton S09 4XY. UK: 'Mount Vernon Hospital, Middlesex HA6 2RN. UK; 5Zeneca Pharmaceutcals Macclesfield. Cheshire SK10 4TG. UK Summary This open-label, non-randomized, parallel-group trial investigated the pharmacokinetics of raltitrexed (Tomudex, formerly ZD1 694) after a single intravenous dose of 3.0 mg m-2, comparing eight cancer patients with mild to moderate renal impairment (creatinine clearance 25-65 ml min-') with eight cancer patients with normal renal function (creatinine clearance >65 ml min-'). The primary end points were area under the plasma raltitrexed concentration-vime curve from the start of the infusion to the last determined concentration (AUCo_) and AUC to infinity (AUCo); secondary end points were peak corncentrations of ralftitrexed (C,n,) and elimination half-life (t,>). The groups were compared statistically using analysis of covariance. The AUCs were greater for patients with renal impairment than for patients with normal renal function (2452.2 compared with 1247.3 ng h ml-' for AUCo._. (ratio 1.97; 95% Cl 1.36-2.84); 2961.5 compared with 1457.0 ng h ml-' for AUCo_ (ratio 2.03; 1.25-3.29). These differences were statistically significant (P = 0.002 and P = 0.008 for AUC, and AUCo_ respectively. Terminal half-life was longer for the renally impaired patients (271.2 compared with 143.3; P = 0.030). There was no significant statistical difference between the groups for C, (652.9 compared with 564.7 ng ml-' for patients with impaired and normal renal function respectively: ratio 1.16; 0.91-1.46; P=0.204). There was a clear relationship between raltfitrexed clearance and creatinine clearance. Adverse events, severe (WHO grade 3 or 4) toxicity and hospitalization due to adverse events were more frequent in the group with renal impairment. Therefore, a reduction in ralftitrexed dose and increased interval between doses is recommended for patients with mild to moderate renal impairment. Keywords: pharmacokinetics; thymidylate synthase; phase I trial; raltitrexed; renal impairment Raltitrexed (Tomudex. ZD1694: Zeneca Limited) is a cytotoxic agent w-hich acts by direct and specific inhibition of thymidydlate synthase. the enzyme catalysing a critical step in de novo DNA synthesis. i.e. the production of thymidine monophosphate from deoxvuridine monophosphate. […]

Structures are written as SMILES.

Usually AUC stands for the area under the concentration-time curve, a measure of exposure. A lower AUC goes with less exposure. By Cmax is commonly meant the highest concentration seen after dosing. As usually defined, the Tmax is the time from dosing to the highest level. The half-life is the time in which the quantity being followed falls by half. As to `Cc1nc2ccc(CN(C)c3ccc(C(=O)N[C@@H](CCC(=O)O)C(=O)O)s3)cc2c(=O)[nH]1` [raltitrexed], in series [1] (95% CI 0.91-1.46, P = 0.204), the “Cmax estimated ratio (impaired:normal renal function)” value is 1.16. For the same compound, in series [1] (95% CI 1.25-3.29, P = 0.008), the “AUC0-infinity estimated ratio (impaired:normal renal function)” value is recorded as 2.03. In addition, the “AUC0-tldc estimated ratio (impaired:normal renal function)” value in series [1] (95% CI 1.36-2.84, P = 0.002) was 1.97. The compound further displayed an AUC in series [1] (both sexes, human, in vivo, AUC0-tldc, adjusted geometric least squares mean) of 2450 ng·h/mL. In series [1] (both sexes, human, in vivo, Cmax, adjusted geometric least squares mean), the Cmax was found to be 565 ng/mL. The Cmax in series [1] (both sexes, human, in vivo, iv, 3 mg, Cmax (mean; SD)) came out at 676 ng/mL. The Tmax in series [1] (both sexes, human, in vivo, iv, tmax (median and range)) was 0.267 h. Moreover, the half-life in series [1] (both sexes, human, in vivo, t1/2 gamma (terminal half-life), adjusted least squares mean) was 271 h. In addition, in series [1] (both, human, in vivo), the “Cmax, adjusted geometric least squares mean” value came out at 652.9 ng/mL and the “t1/2 gamma (terminal half-life), adjusted least squares mean” value is 143.3 h. Besides, the “tmax (median and range)” value in series [1] (both, human, in vivo, iv) was 20 (10-30) min. In addition, the “Cmax (mean; SD)” value in series [1] (human, in vivo, iv, 3 mg) is 567.1 ? 62.7 ng ml-1. In series [2] (both, human, in vivo), the “Pain, number of patients” value is on record as 3 patients; the “WHO grade 3 or 4 drug-related toxicity” value is “No WHO grade 3 or 4 drug-related toxicity was reported”; the “WHO grade 3 or 4 toxicity” value is “grade 3 or 4 toxicity was observed”. In series [2] (renally impaired patient: Cr-EDTA clearance 28, calculated creatinine clearance 23.2 ml min-1), the Serious adverse events result is “Death”.

The values above are taken from article PMC2062997, “Effects of impaired renal function on the pharmacokinetics of raltitrexed (Tomudex ZD1694)” (British Journal of Cancer, 1998).
